Here are results for six compounds from publication PMC8551077, “Conditions for maintenance of hepatocyte differentiation and function in 3D cultures” (iScience, 2021).

Like-named read-outs stand apart in the source and are kept apart here.

In one data set the test system is PHH spheroids. To be noted: 96-well format, medium similar to WEHG; ref Vorrink et al., 2018; cited from earlier work.
For data set [1], the system named is primary human hepatocytes (PHH) spheroids. To be noted: 14 days of treatment, preliminary.
Procedure: To compare how the best performing media influenced the DILI response, a similar approach but in the 384-well format we performed a preliminary hepatotoxicity study (Figure S6). Five prototypic compounds from the previous study were tested in HMM, WENG, and WENG+ media. […] Hepatotoxicity was evaluated after chronic exposure to each of the five drug compounds at 1×, 5×, and 20× times their clinical Cmax concentrations for two weeks, as outlined by [Vorrink et al., (2018)].
ATP conent (expressed as relative light units; RLU) was used to measure the energy status of the PHH spheroids. The spheroids were incubated in AccuMax cell dissociation solution (Thermo Fisher Scientific) for 30 min at 37°C followed by centrifugation at 100 x g for 5 min. The CellTiter-Glo3D assay (Promega, Madison, Wisconsin) was used, with slight modifications. Briefly, the plate was first left for 30 min at room temperature for temperature equilibration. Thereafter CellTiter-Glo® 3D was added, and the plate left in room temperature for another 20 min on a horizontal plate shaker. The luminescence was measured on a Spark plate reader (TECAN). The results are presented as mean values +/- SD of eight technical replicates performed on three independent occasions.
Preliminary studies of hepatotoxicity were conducted as previously described for the 96-well format ([Vorrink et al., 2018]). Briefly, PHHs were cultured in 384-well plates in HMM, WENG or WENG+ media for 1 week to form spheroids. The compounds were dissolved in dimethyl sulfoxide (DMSO), and added to the wells at a final DMSO concentration of 0.5%. As in the Vorrink et al. study, final concentrations of 1×, 5×, and 20× times the clinical Cmax of the compounds were used The exposure medium was changed every 48–72h for the 14 days of treatment. On the last day, PHH viability was assessed by measurement of ATP content (see above) and a viability below 80% of control levels was considered hepatotoxic ([Vorrink et al., 2018]).
A further data set concerns albumin. The settings on record: ref Davies and Anderson, 1997; U. S. Food and Drug Administration, 2019; cited from earlier work.
Setting [2] is: WENG+ medium (zinc-supplemented), 1×, 5×, 20× clinical Cmax.
Setting [3] is: all media (HMM, WENG, WENG+), all concentrations (1×, 5×, 20× clinical Cmax), controls gave correct results.

Take `O=C(O)Cc1ccccc1Nc1c(Cl)cccc1Cl` [diclofenac]: the “DILI classification in the previous study” value (“DILI classification” for short) in the data set on PHH spheroids was “DILI-positive”. In data set [1] (setting [2]), the “Hepatotoxicity (DILI signal; viability below 80% of control levels considered hepatotoxic)” value is recorded as “did not show a DILI signal”.
Take `CC(=O)CC(c1ccccc1)c1c(O)c2ccccc2oc1=O` (stereo not drawn) [warfarin]: in data set [1] (setting [3]), the “Hepatotoxicity (DILI signal; viability below 80% of control levels considered hepatotoxic)” value is on record as “negative”.
`Cn1cnc([N+](=O)[O-])c1Sc1ncnc2nc[nH]c12` [azathioprine]: the “DILI classification” value with PHH spheroids is on record as “DILI-positive”. Besides, the “Hepatotoxicity (DILI signal; viability below 80% of control levels considered hepatotoxic)” value in data set [1] (setting [3]) is given as “positive”.
As to `Cc1ncc2n1-c1ccc(Cl)cc1C(c1ccccc1F)=NC2` [midazolam], in the data set on albumin, the Binding to albumin entry is given as “highly bound”.
Turning to `CN(C)CCCN1c2ccccc2Sc2ccc(Cl)cc21` [chlorpromazine], the “DILI classification” value in the data set on PHH spheroids was “DILI-positive”. In addition, the “Hepatotoxicity (DILI signal; viability below 80% of control levels considered hepatotoxic)” value in data set [1] (setting [2]) is on record as “did not show a DILI signal”.
For `OC(Cn1cncn1)(Cn1cncn1)c1ccc(F)cc1F` [fluconazole], the “DILI classification” value with PHH spheroids is listed as “false DILI-negative”. Besides, the “Hepatotoxicity (DILI signal; viability below 80% of control levels considered hepatotoxic)” value in data set [1] (HMM medium, 1×, 5×, 20× clinical Cmax) is reported as “strong DILI signal”; in data set [1] (WENG medium, 1×, 5×, 20× clinical Cmax), “strong DILI signal”; in data set [1] (setting [2]), “false negative response”.
